Read-outs that look alike come from different tables or passages of the source. Each block holds one molecule with its values, some of them ahead of it.
What was measured:
[1] = test system: murine embryonic fibroblasts (MEFs); assay: β-Lactamase protein transduction assay (CCF2-AM), protocol 3/700; settings: for protein transducing activity of hypertonicity-inducing compound: tonicity adjusted to 700 mOsm/Kg with the compound, 25 mM NDSB201 and osmoprotectants; for effect of endocytic pathway inhibitor on protein transduction / enhancement of protein transduction by GABA agonist: 1 μM β-lactamase; for enhancement of protein transduction by GABA agonist: 25 mM NDSB201 plus GABA agonist, NDSB201 alone = 100%; for protein transduction activity (in words): 25 mM compound, compared with NDSB201 (#01) or parent compound; for effect of growth factor or peptide on β-lactamase transduction of MEFs: 25 mM NDSB201, 30 mM Glycerol, 15 mM Glycine
Source text: To further characterize the protein transduction process we analyzed the effect of time, osmolality, transduction compound concentration and protein concentration on the transduction process. To this end, we set up a β-Lactamase protein transduction assay and measured intracellular β-Lactamase activity using CCF2-AM, an intracellular fluorescent β-Lactamase substrate that changes emission wavelength when cleaved by the enzyme (FIG. 3A). […] While we used the immortalized COS7 cell line in our initial studies, we wanted to know if the compound-mediated protein transduction would also allow the transduction of protein into primary cells. We therefore transduced murine embryonic fibroblasts (MEFs) with β-Lactamase (1 μM final concentration), using NaCl-adjusted hypertonic media (700 mOsm/Kg) and 25 mM NDSB201. β-Lactamase activity was set at 1 at the start of the experiment and relative intracellular β-Lactamase activity was measured as a function of time (FIG. 3B, bars). As a control, β-Lactamase transduction was measured in isotonic media in the presence of 25 mM NSDB201 (FIG. 3B, open circles).
β-lactamase transduction was performed using the 3/700 protocol above in murine embryonic fibroblasts (MEFs). A black, clear-bottom 96 well-plate was coated with 0.15 mg/ml of Poly-D-Lysine for 1 h at room temperature. 12,000 MEFs cells were seeded per well in MEF media without antibiotics. Next day, cells were transduced using the transduction protocol 3/700 as describe above. […] Na- or Rb-salt was added to adjust the final tonicity to 700 mOsm/Kg. […] After 3 hrs., the transduction media was replaced by fresh MEF media for 30 min. Subsequently, cells were washed once with phenol-red-free DMEM. β-lactamase activity was measured using the CCF2-AM kit following the manufacturer's instructions. In brief, 120 μl of CCF2-AM loading media was added per well and cells were incubated for 1 h at room temperature. Cells were washed two times with DMEM phenol-red free and incubated for an additional 30-60 min. Fluorescence emission was measured at […] and 510 nm following manufacturer's instructions. All tests were done in triplicate.

COS7 cells = assay: Oct4 luciferase reporter (6×OCT4-TK-Luc) protein transduction assay; format: cell-based
[2] = test system: MEFs cells expressing GAL3-GFP protein; assay: GAL3-GFP macropinosome vesicle leakage reporter assay; settings: 700/3 conditions
[3] = test system: murine embryonic fibroblasts (MEFs); assay: BrdU incorporation (cell proliferation) after transduction of MEFs; settings: BrdU 24 hrs after start of transduction, 25 mM compound, 700 mOsm/Kg
[4] = 3 hours, 700 mOsm/Kg NaCl, 25 mM NDSB201
[5] = 3 hours, 25 mM NDSB201, tonicity adjusted with NaCl

protein transducing activity of hypertonicity-inducing compound ([1]; 3 hours): failed to induce protein transduction
Molecule: OC[C@H]1O[C@@H](O[C@@H]2[C@@H](CO)OC(O)(CO)[C@H]2O)[C@H](O)[C@@H](O)[C@H]1O (mixture of isomers) [Lactulose]

Molecule: CN(C)CCCN1c2ccccc2Sc2ccc(Cl)cc21 [Chlorpromazine, reference compound]
effect of endocytic pathway inhibitor on protein transduction [1, 4]: ineffective in inhibiting protein transduction

Molecule: [Cl-].[Cs+] [CsCl, caesium chloride]
protein transducing activity of hypertonicity-inducing compound ([1]; 3 hours): had protein transducing activity

Molecule: C=C1[C@@H](C)[C@H]2[C@H](Cc3ccccc3)NC(=O)[C@]23[C@H](OC(C)=O)/C=C/[C@@](C)(O)C(=O)[C@@H](C)C/C=C/[C@H]3[C@@H]1O [Cytochalasin D, reference compound]
effect of endocytic pathway inhibitor on protein transduction [1, 4]: completely blocked protein transduction

effect of endocytic pathway inhibitor on protein transduction [1, 4]: strongly inhibited
Molecule: CN(C)c1nc(N)c(C(=O)N=C(N)N)nc1Cl.Cl [DMA, 5-(N,N-dimethyl) amiloride hydrochloride, reference compound]

Molecule: O=C(N/N=C/c1ccc(O)c(O)c1)c1cc2ccccc2cc1O [Dynasore, reference compound]
effect of endocytic pathway inhibitor on protein transduction [1, 4]: ineffective in inhibiting protein transduction

Molecule: [Cl-].[K+] [KCl, potassium chloride]
protein transducing activity of hypertonicity-inducing compound ([1]; 3 hours): had protein transducing activity

Molecule: C/C1=C/C(=O)O[C@@H]2C[C@@H](CC[C@H](C)/C=C\C=C\CC1)O[C@@](O)([C@@H]1CSC(=O)N1)C2 [Latrunculin A, reference compound]
effect of endocytic pathway inhibitor on protein transduction [1, 4]: completely blocked protein transduction

Molecule: [Cl-].[Li+] [LiCl, lithium chloride]
protein transducing activity of hypertonicity-inducing compound ([1]; 3 hours): had protein transducing activity

protein transducing activity of hypertonicity-inducing compound ([1]; 3 hours): failed to induce protein transduction
Molecule: OC[C@@H](O)[C@@H](O)[C@H](O)[C@H](O)CO [Manitol]

Molecule: NCc1cc(=O)[nH]o1 [Muscimol, reference compound]
enhancement of protein transduction by GABA agonist ([1]; 3 hours, 700 mOsm/Kg): approximately 300%

Molecule: [Cl-].[Na+] [NaCl, Sodium chloride]
effect of omitting buffer component on Oct4-reporter activation by Oct4-VP16 protein (COS7 cells): abrogated Oct4-reporter activation | osmolality beyond which cell loss was observed [1, 5]: > 850 mOsm/Kg | osmolality of maximal β-Lactamase transduction [1, 5]: 700-800 mOsm/Kg | protein transducing activity of hypertonicity-inducing compound ([1]; 3 hours): the highest activity

Molecule: C[C@@H]1[C@H](O)[C@@H](C)/C=C/C=C/CC/C=C/C=C/C=C/C=C/C(O[C@H]2O[C@H](C)[C@@H](O)[C@H](N)[C@@H]2O)CC2O[C@](O)(CC(O)C(O)CCC(O)CC(O)CC(O)CC(=O)O[C@H]1C)CC(O)C2C(=O)O (some centres unmarked) [Nystatin, reference compound]
effect of endocytic pathway inhibitor on protein transduction [1, 4]: ineffective in inhibiting protein transduction

Molecule: O=C1NC(=NS(=O)(=O)c2cccc3ccccc23)S/C1=C\c1ccc(Br)cc1 [Pitstop2, reference compound]
effect of endocytic pathway inhibitor on protein transduction [1, 4]: ineffective in inhibiting protein transduction

Molecule: [Cl-].[Rb+] [RbCl, rubidium chloride]
protein transducing activity of hypertonicity-inducing compound ([1]; 3 hours): the highest activity

Molecule: CP(=O)(O)CCCN [SKF-97541, reference compound]
enhancement of protein transduction by GABA agonist ([1]; 3 hours, 700 mOsm/Kg): approximately 300%

Molecule: O=C([O-])[C@H](O)[C@@H](O)[C@H](O)[C@H](O)CO.[Na+] [Sodium Gluconate]
protein transducing activity of hypertonicity-inducing compound ([1]; 3 hours): efficiency similar to NaCl and RbCl

protein transducing activity of hypertonicity-inducing compound ([1]; 3 hours): failed to induce protein transduction
Molecule: OC[C@@H](O)[C@@H](O)[C@H](O)[C@@H](O)CO [Sorbitol]

protein transducing activity of hypertonicity-inducing compound ([1]; 3 hours): failed to induce protein transduction
Molecule: OC[C@H]1O[C@@](CO)(O[C@H]2O[C@H](CO)[C@@H](O)[C@H](O)[C@H]2O)[C@@H](O)[C@@H]1O [Sucrose]

Molecule: O=S(=O)([O-])CCC[n+]1ccccc1 [compound 1, 3-(1-pyridino)-1-propanesulfonate, reference compound]
effect of omitting buffer component on Oct4-reporter activation by Oct4-VP16 protein (COS7 cells; COS7 cells): abrogated Oct4-reporter activation | time after initiation of transduction at which intracellular β-Lactamase activity could be observed ([1]; 1 μM β-Lactamase, 700 mOsm/Kg NaCl, 25 mM NDSB201): 2.5 h | effect of higher compound concentrations under hyperosmotic conditions ([1]; 700 mOsm/kg, above 10-25 mM): cell loss | protein transduction activity (in words) ([1]; 3 hours, 700 mOsm/Kg): most efficient | transduction compound concentration at peak β-Lactamase transduction ([1]; 3 hours, 700 mOsm/kg NaCl, 1 μM β-Lactamase): 10 to 25 mM | Gal3-GFP localisation to macropinocytic vesicles (vesicle leakage) [2]: bright vesicle formation

protein transduction activity (in words) ([1]; 3 hours, 700 mOsm/Kg): most efficient
Molecule: C[N+]1(CCCS(=O)(=O)[O-])CCCCC1 [compound 03, 3-(1-methylpiperidine)-1-propanesulfonate, reference compound]

Molecule: CCC(C)(C)CCCS(=O)(=O)O [compound 07]
protein transduction activity (in words) ([1]; 3 hours, 700 mOsm/Kg): greatly diminished transduction activity | effect on cell proliferation / viability (BrdU incorporation, in words) [3]: severe cell cycle inhibition

protein transduction activity (in words) ([1]; 3 hours, 700 mOsm/Kg): little to no transduction activity
Molecule: NCC(=O)O [compound 18, Glycine]
β-lactamase transduction activity when combined with reference compound #01 (reference set at 100%) ([1]; equimolar with NDSB201 (#01), 12.5 mM each, total 25 mM, 3 hours, 700 mOsm/Kg): approximately 15% | Gal3-GFP localisation to macropinocytic vesicles (vesicle leakage) [2]: did not localize into the macropinocytic vesicles

protein transduction activity (in words) ([1]; 3 hours, 700 mOsm/Kg): greatly diminished transduction activity
Molecule: CCCCC(=O)O [compound 23, pentanoic acid]
effect on cell proliferation / viability (BrdU incorporation, in words) [3]: severe cell cycle inhibition

protein transduction activity (in words) ([1]; 3 hours, 700 mOsm/Kg): greatly diminished transduction activity
Molecule: CCCCN [compound 24, n-butylamine]
effect on cell proliferation / viability (BrdU incorporation, in words) [3]: severe cell cycle inhibition

effect of growth factor or peptide on β-lactamase transduction of MEFs ([1]; 3 hours, 700 mOsm/Kg): doubling of β-lactamase uptake
Molecule: EGF: epidermal growth factor

Molecule: Insulin: Insulin
effect of growth factor or peptide on β-lactamase transduction of MEFs ([1]; 3 hours, 700 mOsm/Kg): small, but significant stimulatory effect

effect of growth factor or peptide on β-lactamase transduction of MEFs ([1]; 3 hours, 700 mOsm/Kg): doubling of β-lactamase uptake
Molecule: PDGF
